Experiment: refractive index (Na D-line) (dimensionless); φn = volume fraction of the nth substance listed
Conditions: 101 kPa, Liquid, Standard Abbe refractometry

C=C[Si]1(C)O[Si](C)(C=C)O[Si](C)(C=C)O[Si](C)(C=C)O1 (stereo not given) [2,4,6,8-tetramethyl-2,4,6,8-tetravinylcycloterasiloxane] + Cc1cccc(C)c1
Conditions | refractive index
288.15 K, φ1 = 0.1301 | 1.4916
288.15 K, φ1 = 0.2524 | 1.48392
288.15 K, φ1 = 0.3347 | 1.47877
288.15 K, φ1 = 0.4159 | 1.47367
288.15 K, φ1 = 0.4865 | 1.46917
288.15 K, φ1 = 0.5517 | 1.46505
288.15 K, φ1 = 0.5985 | 1.46211
288.15 K, φ1 = 0.653 | 1.45885
288.15 K, φ1 = 0.6984 | 1.45591
288.15 K, φ1 = 0.7389 | 1.45344
288.15 K, φ1 = 0.776 | 1.45106
288.15 K, φ1 = 0.8087 | 1.44894
288.15 K, φ1 = 0.8405 | 1.44691
288.15 K, φ1 = 0.866 | 1.44524
288.15 K, φ1 = 0.8941 | 1.44346
288.15 K, φ1 = 0.9183 | 1.44189
288.15 K, φ1 = 0.941 | 1.44046
288.15 K, φ1 = 0.9804 | 1.43797
288.15 K, φ1 = 1 | 1.43674
298.15 K, φ1 = 0.1302 | 1.48641
298.15 K, φ1 = 0.2525 | 1.4788
298.15 K, φ1 = 0.3347 | 1.47372
298.15 K, φ1 = 0.416 | 1.46865
298.15 K, φ1 = 0.4866 | 1.46426
298.15 K, φ1 = 0.5518 | 1.46017
298.15 K, φ1 = 0.5986 | 1.45726
298.15 K, φ1 = 0.6531 | 1.454
298.15 K, φ1 = 0.6984 | 1.45105
298.15 K, φ1 = 0.7389 | 1.44845
298.15 K, φ1 = 0.7761 | 1.4461
298.15 K, φ1 = 0.8087 | 1.44408
298.15 K, φ1 = 0.8405 | 1.44212
298.15 K, φ1 = 0.866 | 1.44048
298.15 K, φ1 = 0.8941 | 1.4387
298.15 K, φ1 = 0.9183 | 1.43717
298.15 K, φ1 = 0.941 | 1.43574
298.15 K, φ1 = 0.9804 | 1.43324
298.15 K, φ1 = 1 | 1.43202
308.15 K, φ1 = 0.1302 | 1.48109
308.15 K, φ1 = 0.2525 | 1.47359
308.15 K, φ1 = 0.3348 | 1.46856
308.15 K, φ1 = 0.4161 | 1.46354
308.15 K, φ1 = 0.4867 | 1.45917
308.15 K, φ1 = 0.5519 | 1.45513
308.15 K, φ1 = 0.5987 | 1.45223
308.15 K, φ1 = 0.6532 | 1.44903
308.15 K, φ1 = 0.6985 | 1.4461
308.15 K, φ1 = 0.739 | 1.44355
308.15 K, φ1 = 0.7761 | 1.44125
308.15 K, φ1 = 0.8088 | 1.43919
308.15 K, φ1 = 0.8406 | 1.43727
308.15 K, φ1 = 0.8661 | 1.43566
308.15 K, φ1 = 0.8942 | 1.43391
308.15 K, φ1 = 0.9183 | 1.4324
308.15 K, φ1 = 0.941 | 1.43098
308.15 K, φ1 = 0.9804 | 1.4285
308.15 K, φ1 = 1 | 1.4273
318.15 K, φ1 = 0.1303 | 1.47582
318.15 K, φ1 = 0.2526 | 1.46841
318.15 K, φ1 = 0.3349 | 1.46342
318.15 K, φ1 = 0.4162 | 1.45843
318.15 K, φ1 = 0.4867 | 1.45413
318.15 K, φ1 = 0.5519 | 1.45015
318.15 K, φ1 = 0.5988 | 1.44727
318.15 K, φ1 = 0.6533 | 1.44383
318.15 K, φ1 = 0.6986 | 1.44117
318.15 K, φ1 = 0.7391 | 1.43865
318.15 K, φ1 = 0.7762 | 1.43639
318.15 K, φ1 = 0.8088 | 1.43434
318.15 K, φ1 = 0.8406 | 1.43244
318.15 K, φ1 = 0.8661 | 1.43085
318.15 K, φ1 = 0.8942 | 1.42911
318.15 K, φ1 = 0.9184 | 1.42763
318.15 K, φ1 = 0.9411 | 1.42622
318.15 K, φ1 = 0.9804 | 1.42377
318.15 K, φ1 = 1 | 1.42257
328.15 K, φ1 = 0.1303 | 1.47053
328.15 K, φ1 = 0.2526 | 1.46321
328.15 K, φ1 = 0.335 | 1.45825
328.15 K, φ1 = 0.4163 | 1.45333
328.15 K, φ1 = 0.4868 | 1.44908
328.15 K, φ1 = 0.552 | 1.44511
328.15 K, φ1 = 0.5988 | 1.44229
328.15 K, φ1 = 0.6533 | 1.43851
328.15 K, φ1 = 0.6986 | 1.43604
328.15 K, φ1 = 0.7391 | 1.43374
328.15 K, φ1 = 0.7762 | 1.43152
328.15 K, φ1 = 0.8089 | 1.42952
328.15 K, φ1 = 0.8407 | 1.42761
328.15 K, φ1 = 0.8661 | 1.42604
328.15 K, φ1 = 0.8942 | 1.42434
328.15 K, φ1 = 0.9184 | 1.42285
328.15 K, φ1 = 0.9411 | 1.42145
328.15 K, φ1 = 0.9804 | 1.41904
328.15 K, φ1 = 1 | 1.41785

C=C[Si]1(C)O[Si](C)(C=C)O[Si](C)(C=C)O[Si](C)(C=C)O1 (stereo not given) [2,4,6,8-tetramethyl-2,4,6,8-tetravinylcycloterasiloxane] + Cc1ccccc1C
Conditions | refractive index
288.15 K, φ1 = 0.1323 | 1.49868
288.15 K, φ1 = 0.2522 | 1.49036
288.15 K, φ1 = 0.3383 | 1.4844
288.15 K, φ1 = 0.4201 | 1.47866
288.15 K, φ1 = 0.4909 | 1.47364
288.15 K, φ1 = 0.5559 | 1.46898
288.15 K, φ1 = 0.6028 | 1.4657
288.15 K, φ1 = 0.6571 | 1.46179
288.15 K, φ1 = 0.7017 | 1.45858
288.15 K, φ1 = 0.7422 | 1.4556
288.15 K, φ1 = 0.7787 | 1.45298
288.15 K, φ1 = 0.8113 | 1.45065
288.15 K, φ1 = 0.842 | 1.44839
288.15 K, φ1 = 0.8679 | 1.44648
288.15 K, φ1 = 0.8958 | 1.44445
288.15 K, φ1 = 0.9198 | 1.44269
288.15 K, φ1 = 0.942 | 1.44102
288.15 K, φ1 = 0.9794 | 1.43827
288.15 K, φ1 = 1 | 1.43674
298.15 K, φ1 = 0.1324 | 1.49359
298.15 K, φ1 = 0.2524 | 1.48535
298.15 K, φ1 = 0.3385 | 1.47939
298.15 K, φ1 = 0.4203 | 1.4737
298.15 K, φ1 = 0.4911 | 1.46872
298.15 K, φ1 = 0.5561 | 1.46412
298.15 K, φ1 = 0.603 | 1.46081
298.15 K, φ1 = 0.6573 | 1.45693
298.15 K, φ1 = 0.7019 | 1.45375
298.15 K, φ1 = 0.7423 | 1.45081
298.15 K, φ1 = 0.7788 | 1.44819
298.15 K, φ1 = 0.8114 | 1.44585
298.15 K, φ1 = 0.8421 | 1.4436
298.15 K, φ1 = 0.868 | 1.44172
298.15 K, φ1 = 0.8958 | 1.43977
298.15 K, φ1 = 0.9199 | 1.43795
298.15 K, φ1 = 0.9421 | 1.4363
298.15 K, φ1 = 0.9794 | 1.43354
298.15 K, φ1 = 1 | 1.43202
308.15 K, φ1 = 0.1325 | 1.48836
308.15 K, φ1 = 0.2526 | 1.48017
308.15 K, φ1 = 0.3387 | 1.47425
308.15 K, φ1 = 0.4205 | 1.46859
308.15 K, φ1 = 0.4913 | 1.46366
308.15 K, φ1 = 0.5563 | 1.45909
308.15 K, φ1 = 0.6032 | 1.45581
308.15 K, φ1 = 0.6575 | 1.45196
308.15 K, φ1 = 0.7021 | 1.44881
308.15 K, φ1 = 0.7425 | 1.4459
308.15 K, φ1 = 0.779 | 1.44332
308.15 K, φ1 = 0.8116 | 1.441
308.15 K, φ1 = 0.8422 | 1.43878
308.15 K, φ1 = 0.8681 | 1.43691
308.15 K, φ1 = 0.8959 | 1.43489
308.15 K, φ1 = 0.9199 | 1.43317
308.15 K, φ1 = 0.9421 | 1.43154
308.15 K, φ1 = 0.9794 | 1.42881
308.15 K, φ1 = 1 | 1.4273
318.15 K, φ1 = 0.1326 | 1.48315
318.15 K, φ1 = 0.2527 | 1.47503
318.15 K, φ1 = 0.3389 | 1.46915
318.15 K, φ1 = 0.4207 | 1.46354
318.15 K, φ1 = 0.4915 | 1.45862
318.15 K, φ1 = 0.5565 | 1.45412
318.15 K, φ1 = 0.6034 | 1.45086
318.15 K, φ1 = 0.6577 | 1.44704
318.15 K, φ1 = 0.7022 | 1.44393
318.15 K, φ1 = 0.7426 | 1.44105
318.15 K, φ1 = 0.7791 | 1.43846
318.15 K, φ1 = 0.8117 | 1.4362
318.15 K, φ1 = 0.8423 | 1.43396
318.15 K, φ1 = 0.8682 | 1.43215
318.15 K, φ1 = 0.896 | 1.43012
318.15 K, φ1 = 0.92 | 1.4284
318.15 K, φ1 = 0.9421 | 1.42678
318.15 K, φ1 = 0.9794 | 1.42407
318.15 K, φ1 = 1 | 1.42257
328.15 K, φ1 = 0.1326 | 1.4779
328.15 K, φ1 = 0.2528 | 1.46957
328.15 K, φ1 = 0.339 | 1.46397
328.15 K, φ1 = 0.4208 | 1.45836
328.15 K, φ1 = 0.4916 | 1.45349
328.15 K, φ1 = 0.5567 | 1.44897
328.15 K, φ1 = 0.6035 | 1.44567
328.15 K, φ1 = 0.6578 | 1.44199
328.15 K, φ1 = 0.7023 | 1.43887
328.15 K, φ1 = 0.7427 | 1.43597
328.15 K, φ1 = 0.7792 | 1.43343
328.15 K, φ1 = 0.8118 | 1.43123
328.15 K, φ1 = 0.8423 | 1.42902
328.15 K, φ1 = 0.8683 | 1.42718
328.15 K, φ1 = 0.896 | 1.42526
328.15 K, φ1 = 0.92 | 1.42355
328.15 K, φ1 = 0.9422 | 1.42195
328.15 K, φ1 = 0.9794 | 1.41933
328.15 K, φ1 = 1 | 1.41785

Source: the NIST ThermoML archive (doi:10.1016/j.jct.2012.08.010)
